Here are results for 59 compounds from patent publication US20130116219A1, “ANTIMICROBIAL CARBOLINE COMPOUNDS” (ALCON RESEARCH, LTD., priority 2011, published 2013).

In this experiment the test system is Ad5. Description: Ad5 genome replication assay (cell-based QPCR) in A549 cells. The note with it: Human adenovirus sp., A549, 72 h, read-out: Ad5 qPCR EC50 (μM). As to the method:
Compounds of the present invention were tested for potency against Ad5 in an Ad5 genome replication assay, a cell-based QPCR assay of Ad5 genome replication in A549 cells, a human lung carcinoma cell line. Serotype of human Ad5, used in this replication assay can also replicate in a NZW rabbit model of adenoviral ocular keratitis.
EC50 values (μM) for inhibition of adenoviral replication were determined by QPCR. Briefly, 10,000 cultured A549 cells were inoculated with 25,000 pfu/well for 3 hrs in 2% FBS F12-K A549 culture media. Following inoculation, A549 cells were treated with log unit dilutions of compound of Formula I (˜10 μM thru˜10 pM) in 10% FBS F12-K culture media with 0.3% DMSO for an additional 3 days. Cell viability was assessed with Alamar Blue (10 μl/well for 2 hrs; fluorescence Ex353; Em595 nm). Plates were washed 3 times with 125 μl PBS, cell lysates were prepared for QPCR analysis using Cells to SNP kit (Life Technologies). Ad5 genome levels per cell were determined with RNaseP and Ad5 hexon Taqman Assays (Life Technologies). EC50, the concentration that inhibited Ad5 genome replication formation by 50%, was estimated from plots of Ad5 genomes/cell vs. compound concentration.
(Quantitative PCR measures a nucleic acid by following its amplification.)
With `CC(C)CC1c2[nH]c3ccc(Cl)cc3c2CCN1c1nc(CN2CCC(F)CC2)co1` (centres unmarked) [Compound 57], the EC50 (in general, the concentration that produces a half-maximal response) lay in the range of 0.1 to 1 µM.

In the case of `CC(C)CC1c2[nH]c3ccc(Cl)cc3c2CCN1C(=O)C1CN(c2ncccn2)C1` (centres unmarked) [Compound 81], the EC50 lay in the range of 0.1 to 1 µM.

Turning to `CC(C)CC1c2[nH]c3ccc(Cl)cc3c2CCN1C(=O)OCCN1CCC(F)(F)CC1` (centres unmarked) [Compound 14], the half-maximal effective concentration (EC50) was 0.1 to 1 µM.

Take `CC(C)CC1c2[nH]c3ccc(Cl)cc3c2CCN1C(=O)CN(C)c1ccccc1` (centres unmarked) [Compound 74]: the EC50 lay within 0.1 to 1 µM.

Turning to `CC(C)CC1c2[nH]c3ccc(Cl)cc3c2CCN1S(=O)(=O)CCN1CCC(F)(F)CC1` (centres unmarked) [Compound 36], the EC50 was above 1 µM.

Take `CC(C)CC1c2[nH]c3ccc(Cl)cc3c2CCN1CCCc1ccccc1` (centres unmarked) [Compound 109]: the EC50 was 0.1 to 1 µM.

As for `CC(C)CC1c2[nH]c3ccc(Cl)cc3c2CCN1C(=O)c1ccco1` (centres unmarked) [Compound 66], the EC50 was above 1 µM.

`CC(C)(C)CC1c2[nH]c3ccc(Cl)cc3c2CCN1C(=O)CCN1CCC(F)CC1` (centres unmarked) [Compound 30]: the EC50 is above 1 µM.

In the case of `CC(C)(C)CC1c2[nH]c3ccc(Cl)cc3c2CCN1C(=O)CCN1CCC(C(F)F)CC1` (centres unmarked) [Compound 32], the EC50 is above 1 µM.

As to `CC(C)CC1c2[nH]c3ccc(Cl)cc3c2CCN1C(=O)Cc1cccnc1` (centres unmarked) [Compound 60], the EC50 is above 1 µM.

`O=C(CCN1CCC(F)CC1)N1CCc2c([nH]c3ccc(Cl)cc23)C1CC1CCCC1` (centres unmarked) [Compound 27]: the EC50 lay in the range of 0.1 to 1 µM.

Regarding `CC(C)CC1c2[nH]c3ccc(Cl)cc3c2CCN1C(=O)C1(F)CN(CC(C)C)C1` (centres unmarked) [Compound 103, (6-chloro-1-isobutyl-3,4-dihydro-1H-pyrido[3,4-b]indol-2(9H)-yl)(3-fluoro-1-isobutylazetidin-3-yl)methanone], the EC50 is below 0.1 µM.

For the compound `CC(C)CC1c2[nH]c3ccc(Cl)cc3c2CCN1C(=O)CCc1ccco1` (centres unmarked) [Compound 58], the EC50 is below 0.1 µM.

On to `CC(C)CC1c2[nH]c3ccc(Cl)cc3c2CCN1C(=O)C1(F)CNC1` (centres unmarked) [Compound 102], for which the EC50 was in the range of 0.1 to 1 µM.

Turning to `CC(C)CC1c2[nH]c3ccc(Cl)cc3c2CCN1C(=O)OCCN1CCC(C(F)(F)F)C1` (centres unmarked) [Compound 17], the EC50 fell in the range of 0.1 to 1 µM.

`CC(C)CC1c2[nH]c3ccc(Cl)cc3c2CCN1C(=O)CCCN1CCC(F)(F)CC1` (centres unmarked) [Compound 12]: the EC50 was above 1 µM.

For `CC(C)CC1c2[nH]c3ccc(Cl)cc3c2CCN1C(=O)CNc1ccccc1` (centres unmarked) [Compound 70], the concentration giving a half-maximal response (EC50) is below 0.1 µM.

As for `CC(C)C[C@H]1c2[nH]c3ccc(Cl)cc3c2CCN1C(=O)CC1CCN(CC(F)F)CC1` [Compound 100], the EC50 is below 0.1 µM.

With `CC(C)C[C@H]1c2[nH]c3ccc(Cl)cc3c2CCN1C(=O)CNCCC(F)(F)F` [Compound 108, (S)-1-(6-chloro-1-isobutyl-3,4-dihydro-1H-pyrido[3,4-b]indol-2(9H)-yl)-2-(3,3,3-trifluoropropylamino)ethanone], the EC50 is below 0.1 µM.

As to `CC(C)C[C@H]1c2[nH]c3ccc(Cl)cc3c2CCN1C(=O)CNC1CCC(F)(F)CC1` [Compound 94, (S)-1-(6-chloro-1-isobutyl-3,4-dihydro-1H-pyrido[3,4-b]indol-2(9H)-yl)-2-((4,4-difluorocyclohexyl)amino)ethanone], the EC50 is below 0.1 µM.

For `CC(C)CC1c2[nH]c3ccc(Cl)cc3c2CCN1C(=O)c1cccnc1` (centres unmarked) [Compound 64], the EC50 lay in the range of 0.1 to 1 µM.

As for `CC(C)CC1c2[nH]c3ccc(Cl)cc3c2CCN1C(=O)CN1CC(F)C1` (centres unmarked) [Compound 41], the EC50 fell in the range of 0.1 to 1 µM.

Take `O=C(CCC1CCCCC1)N1CCc2c([nH]c3ccc(Cl)cc23)C1CN1CCC(F)(F)CC1` (centres unmarked) [Compound 78, 1-(6-chloro-1-1((4,4-difluoropiperidin-1-yl)methyl)-3,4-dihydro-1H-pyrido[3,4-b]indol-2(9H)-yl)-3-cyclohexylpropan-1-one]: the EC50 was in the range of 0.1 to 1 µM.

Take `CC(C)CC1c2[nH]c3ccc(Cl)cc3c2CCN1C1CC1` (centres unmarked) [Compound 95]: the EC50 is below 0.1 µM.

As to `CC(C)C[C@H]1c2[nH]c3ccc(Cl)cc3c2CCN1C(=O)C1CCN(CC(F)F)CC1` [Compound 83], the EC50 lay within 0.1 to 1 µM.

For `CC(C)CC1c2[nH]c3ccc(Cl)cc3c2CCN1C(=O)CCc1ccccc1` (centres unmarked) [Compound 1], the EC50 fell in the range of 0.1 to 1 µM.

For the compound `CC(C)C[C@H]1c2[nH]c3ccc(Cl)cc3c2CCN1CCN1CCC(F)(F)CC1` [Compound 110, (S)-6-chloro-2-(2-(4,4-difluoropiperidin-1-yl)ethyl)-1-isobutyl-2,3,4,9-tetrahydro-1H-pyrido[3,4-b]indole], the EC50 is 0.1 to 1 µM.

As to `CC(C)CC1c2[nH]c3ccc(Cl)cc3c2CCN1C(=O)C(C)(C)CN1CCC(F)(F)CC1` (centres unmarked) [Compound 33], the EC50 is above 1 µM.

As to `CC(C)C[C@H]1c2[nH]c3ccc(Cl)cc3c2CCN1C(=O)CCN1CCC(C(F)F)CC1` [Compound 29, (S)-1-(6-chloro-1-isobutyl-3,4-dihydro-1H-pyrido[3,4-b]indol-2(9H)-yl)-3-(4-(difluoromethyl)piperidin-1-yl)propan-1-one], the EC50 lay in the range of 0.1 to 1 µM.

For `CC(C)CC1c2[nH]c3ccc(Cl)cc3c2CCN1C(=O)CN1CCC(F)(F)CC1` (centres unmarked) [Compound 7], the EC50 is 0.1 to 1 µM.

For the compound `CC(C)CC1c2[nH]c3ccc(Cl)cc3c2CCN1C(=O)OCCN1CCC(C(F)F)CC1` (centres unmarked) [Compound 22], the EC50 was above 1 µM.

Consider `CC(C)CC1c2[nH]c3ccc(Cl)cc3c2CCN1C(=O)C1CN(CC2CC2(F)F)C1` (centres unmarked) [Compound 107], for which the EC50 is above 1 µM.

On to `CC(C)C[C@H]1c2[nH]c3ccc(Cl)cc3c2CCN1C(=O)C1CN(CC(F)F)C1` [Compound 54], for which the EC50 lay within 0.1 to 1 µM.

As for `CC(C)C[C@H]1c2[nH]c3ccc(Br)cc3c2CCN1C(=O)CNC1CC1` [Compound 98, (S)-1-(6-bromo-1-isobutyl-3,4-dihydro-1H-pyrido[3,4-b]indol-2(9H)-yl)-2-(cyclopropylamino)ethanone], the concentration for a half-maximal effect (EC50) is below 0.1 µM.

For `CC(C)CC1c2[nH]c3ccc(Cl)cc3c2CCN1C(=O)Cc1ccccn1` (centres unmarked) [Compound 59], the EC50 was above 1 µM.

For `CC(C)CC1c2[nH]c3ccc(Cl)cc3c2CCN1C(=O)CCN1CCC(CF)CC1` (centres unmarked) [Compound 16], the EC50 is 0.1 to 1 µM.

In the case of `Cc1ccc(C2c3[nH]c4ccc(Cl)cc4c3CCN2C(=O)CCN2CCC(F)(F)CC2)cc1` (centres unmarked) [Compound 4], the EC50 lay within 0.1 to 1 µM.

Take `CC(C)CC1c2[nH]c3ccc(Cl)cc3c2CCN1C(=O)COC1CCN(C2CC2)CC1` (centres unmarked) [Compound 69]: the EC50 was above 1 µM.

Consider `CC(C)CC1c2[nH]c3ccc(Cl)cc3c2CCN1C(=O)Cc1ccncc1` (centres unmarked) [Compound 61], for which the EC50 is above 1 µM.

`CC(C)CC1c2[nH]c3ccc(Cl)cc3c2CCN1C(=O)CCN1CCCCC12CC2` (centres unmarked) [Compound 44]: the EC50 fell in the range of 0.1 to 1 µM.

As to `CC(C)CC1c2[nH]c3ccc(Cl)cc3c2CCN1C(=O)OCCN1CC(F)C1` (centres unmarked) [Compound 21], the EC50 is above 1 µM.

Turning to `CC(C)CC1c2[nH]c3ccc(Cl)cc3c2CCN1C(=O)CCc1ccc(O)cc1` (centres unmarked) [Compound 72], the EC50 is above 1 µM.

With `CC(C)CC1c2[nH]c3ccc(Cl)cc3c2CCN1C(=O)C1CCN(c2ncccn2)CC1` (centres unmarked) [Compound 67], the EC50 lay within 0.1 to 1 µM.

In the case of `CC(C)CC1c2[nH]c3ccc(Cl)cc3c2CCN1C(=O)CN1CCOCC1` (centres unmarked) [Compound 55], the EC50 is above 1 µM.

On to `CC(C)CC1c2[nH]c3ccc(Cl)cc3c2CCN1C(=O)CN1CC(F)(F)C1` (centres unmarked) [Compound 85, 1-(6-chloro-1-isobutyl-3,4-dihydro-1H-pyrido[3,4-b]indol-2(9H)-yl)-2-(3,3-difluoroazetidin-1-yl)ethanone], for which the EC50 is below 0.1 µM.

As to `CC(C)CC1c2[nH]c3ccc(Cl)cc3c2CCN1C(=O)OCCN1CCC(CF)CC1` (centres unmarked) [Compound 24], the EC50 is above 1 µM.

Turning to `CC(C)CC1c2[nH]c3ccc(Cl)cc3c2CCN1C(=O)CNC1CCCCC1` (centres unmarked) [Compound 40], the EC50 is above 1 µM.

As to `CC(C)CC1c2[nH]c3ccc(Cl)cc3c2CCN1C(=O)Cc1ccccc1` (centres unmarked) [Compound 63], the EC50 lay within 0.1 to 1 µM.

With `CC(C)CC1c2[nH]c3ccc(Cl)cc3c2CCN1C(=O)CC1CCN(C2CC2)CC1` (centres unmarked) [Compound 75], the EC50 lay within 0.1 to 1 µM.

As for `CCCCN1CC(F)(C(=O)N2CCc3c([nH]c4ccc(Cl)cc34)C2CC(C)C)C1` (centres unmarked) [Compound 106], the EC50 was below 0.1 µM.

Turning to `CC(C)CC1c2[nH]c3ccc(Cl)cc3c2CCN1C(=O)c1ccccc1` (centres unmarked) [Compound 62], the EC50 is 0.1 to 1 µM.

With `CC(C)CC1c2[nH]c3ccc(Cl)cc3c2CCN1C(=O)CCN1CCSCC1` (centres unmarked) [Compound 19], the EC50 is 0.1 to 1 µM.

On to `CC(C)CC1c2[nH]c3ccc(Cl)cc3c2CCN1C(=O)C(C)CN1CCC(F)(F)CC1` (centres unmarked) [Compound 37], for which the EC50 fell in the range of 0.1 to 1 µM.

For the compound `CC(C)CC1c2[nH]c3ccc(Cl)cc3c2CCN1C(=O)CC1CCCO1` (centres unmarked) [Compound 42], the EC50 was 0.1 to 1 µM.

Turning to `CC(C)CC1c2[nH]c3ccc(Cl)cc3c2CCN1C(=O)CNCCN1CCC(F)(F)CC1` (centres unmarked) [Compound 86], the EC50 was above 1 µM.

Take `CC(C)CC1c2[nH]c3ccc(Br)cc3c2CCN1C(=O)CCN1CCC(F)(F)CC1` (centres unmarked) [Compound 45]: the EC50 is below 0.1 µM.

For `CC(C)CC1c2[nH]c3ccc(Cl)cc3c2CCN1Cc1ccco1` (centres unmarked) [Compound 88], the EC50 is 0.1 to 1 µM.

In the case of `CC(C)CC1c2[nH]c3ccc(Cl)cc3c2CCN1C(=O)CCN1CCCC(F)(F)C1` (centres unmarked) [Compound 13], the EC50 fell in the range of 0.1 to 1 µM.

As for `CC(C)CC1c2[nH]c3ccc(Cl)cc3c2CCN1CCN1CC[C@H](F)C1` (some centres unmarked) [Compound 101], the EC50 was above 1 µM.
